According to US20090022675A1, “ESTERS WITH WARMING PROPERTIES” (priority 2007, published 2009):

Assay: Warming properties: rise in temperature on mixing with water (heat of solution)
Assay type: physicochemical
Settings: mixed with water; Hest G-18-O maximum when about 60% by weight is used
Description: When Hest G-18-O is mixed with water at ambient temperature, there is a rise in temperature. The rise in temperature ranges from about 5 degrees C. to about 15 degrees C.; it also ranges from about 8 degrees C. to about 12 degrees C. This rise in temperature is about 2-3 times more than that obtained with the same weight of glycerine (FIG. 1) or propylene glycol. The temperature rise reaches a maximum of about 12 degrees C. when about 60% by weight of Hest G-18-O is used. This compares to a maximum of only about 5 degrees C. for glycerine or propylene glycol.
The maximum amount of heat (though not the greatest rise in temperature) is obtained when the Hest G-18-O is dissolved in a large excess of water. If the Hest G-18-O, glycerine or propylene glycol is not anhydrous, some of its heat of solution will already have been dissipated. Correspondingly, smaller amounts of heat will be produced by further dilution.

OCC(O)CO [glycerine]
maximum temperature rise: about 5 degrees C.

CC(O)CO (centres unmarked) [propylene glycol]
maximum temperature rise: about 5 degrees C.
